Measurements taken from the NIST ThermoML archive (doi:10.1016/j.jct.2018.08.005).

What was measured:
[1] = molar heat capacity at constant pressure; xn = mol fraction of the nth substance listed; details: 100 kPa, Liquid, DSC, x2 = 0
[2] = molar heat capacity at constant pressure; details: 100 kPa, Liquid, DSC

CC(C)OC(C)C [diisopropyl ether] + CCOC(F)(C(F)(F)C(F)(F)C(F)(F)F)C(F)(C(F)(F)F)C(F)(F)F
[1]
Details	molar heat capacity at constant pressure [J/K/mol]
290.5 K	211.5
295.44 K	213.44
300.38 K	215.28
305.32 K	217.33
310.26 K	219.37
315.2 K	221.41
320.13 K	223.46
325.07 K	225.5
330.01 K	227.65
334.95 K	229.89
339.89 K	232.04

CCOC(F)(C(F)(F)C(F)(F)C(F)(F)F)C(F)(C(F)(F)F)C(F)(F)F (configuration not stated) [2-trifluoromethyl-3-ethoxydodecafluorohexane]
[2]
Details	molar heat capacity at constant pressure [J/K/mol]
297.91 K	466.29
307.79 K	472.92
317.66 K	479.54
327.54 K	486.58
337.42 K	494.03
347.29 K	500.66
357.17 K	508.53
367.05 K	517.23
376.92 K	523.85
386.8 K	531.72

CC(C)OC(C)C [diisopropyl ether]
[2]
Details	molar heat capacity at constant pressure [J/K/mol]
290.5 K	211.5
295.44 K	213.44
300.38 K	215.28
305.32 K	217.33
310.26 K	219.37
315.2 K	221.41
320.13 K	223.46
325.07 K	225.5
330.01 K	227.65
334.95 K	229.89
339.89 K	232.04
